Among the data in patent US11548868B2, “Heterocyclic compounds, compositions comprising heterocyclic compound, and methods of use thereof” (JS INNOPHARM (SHANGHAI) LTD, priority 2017, dated 2023) are IC50 values, retold here.

Molecules are shown by their SMILES. Bounds are passed on as bounds.

In test [1] the target is T1, IDO1 in Hela cancer cells (Homo sapiens, UniProt P14902).
T1 construct: endogenous in cells; host or cells: Hela cancer cells stimulated with human IFN-γ
Kind of test: IDO1 Cellular Assay (kynurenine production in IFN-γ stimulated Hela cancer cells). It is filed as cell-based. Particulars: human IFN-γ 50 ng/mL, 48 hours incubation, kynurenine at 490 nm. As to the method: Hela cancer cells (5×10^3 per well) with 85 μL DMEM medium containing 10% FBS were seeded in a 96-well plate and incubated at 95% humidity and 5% CO2 at 37° C. for 24 hours. human IFN-γ (10 μL, 50 ng/mL final concentration) and 5 μL serial dilutions of the test compounds were added into each well. The test compounds were dissolved in DMSO, and successively diluted with pH7.5 buffer (with final DMSO concentration of 0.25%) resulting in final concentrations of the test compounds ranging from 0 to 25 μM (0, 2.5, 7.5, 25, 75, 250, 750, 2500, 7500, & 25000 nM). After 48 hours of incubation, 70 uL of the supernatant per well was transferred to a new 96 well plate. Trichloroacetic acid (6.1 N, 8 μL) was mixed into each well and incubated at 50° C. for 30 min to hydrolyze N-formylkynurenine produced by IDO to kynurenine. The reaction mixture was then centrifuged for 10 min at 2500 RPM to remove sediments. 50 μL of the supernatant per well was transferred to another 96 well plate and mixed with 50 uL of 2% (w/v) p-dimethylaminobenzaldehyde in acetic acid. The yellow color derived from kynurenine was measured at 490 nm using a microplate reader. Percent inhibition of the test compounds was determined by measuring the decrease in kynurenine as compared to the control of DMSO vehicle, which was calculated by formula of (WC-WT)/WC, where WC is the mean absorbance of the control well minus blank well; WT is the mean absorbance of the test well minus the blank well. Data was analyzed by GraphPad Prism 5 and the IC50 values were obtained by non-linear regression.
The IC50 values of for Compounds disclosed are listed in Table 2, A′: ≤0.5 μM; B′: >0.5 μM and ≤1 μM; C′: >1.0 μM and ≤5 uM; and D′: >5 μM.

Test [2] concerns the target T2, TDO2 in A172 cancer cells (Homo sapiens, UniProt P48775).
T2 construct: endogenous in cells; host or cells: A172 cancer cells
Nature of the test: TDO2 Cellular Assay (kynurenine production in A172 cancer cells). Particulars: L-Trp 1 mM, 24 hours incubation, kynurenine at 490 nm. It is filed as cell-based. An outline of the steps: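 Kynurenine output of A172 cells was read colorimetrically at 490 nm (Ehrlich reagent after TCA hydrolysis at 50 °C). Cells had 1 mM L-Trp plus compound at 0–25 μM in 0.25% DMSO for 24 h; IC50 values were fitted non-linearly from percent inhibition relative to vehicle.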

T1 sequence (P14902 whole entry): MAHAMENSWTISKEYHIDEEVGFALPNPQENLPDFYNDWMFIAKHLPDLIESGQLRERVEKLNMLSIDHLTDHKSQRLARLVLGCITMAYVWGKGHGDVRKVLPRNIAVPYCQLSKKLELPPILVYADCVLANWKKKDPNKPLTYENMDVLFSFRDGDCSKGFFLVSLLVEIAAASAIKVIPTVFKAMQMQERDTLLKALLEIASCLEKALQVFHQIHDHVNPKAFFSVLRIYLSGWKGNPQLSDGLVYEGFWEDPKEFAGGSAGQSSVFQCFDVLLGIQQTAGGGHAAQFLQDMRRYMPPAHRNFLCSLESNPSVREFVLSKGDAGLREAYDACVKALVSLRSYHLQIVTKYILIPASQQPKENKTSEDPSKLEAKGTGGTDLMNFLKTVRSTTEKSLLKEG
T2 sequence (P48775 whole entry): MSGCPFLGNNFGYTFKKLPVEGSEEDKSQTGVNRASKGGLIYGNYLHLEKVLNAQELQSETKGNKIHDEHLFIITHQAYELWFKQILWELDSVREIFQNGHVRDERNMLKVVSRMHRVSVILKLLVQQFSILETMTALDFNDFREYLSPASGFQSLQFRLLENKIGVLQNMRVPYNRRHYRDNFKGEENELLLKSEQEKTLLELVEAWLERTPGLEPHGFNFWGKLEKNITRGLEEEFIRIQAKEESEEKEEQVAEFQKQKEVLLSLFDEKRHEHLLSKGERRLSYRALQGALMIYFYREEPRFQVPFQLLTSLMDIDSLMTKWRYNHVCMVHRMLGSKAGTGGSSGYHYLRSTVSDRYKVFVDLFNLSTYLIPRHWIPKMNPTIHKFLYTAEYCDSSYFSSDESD

Turning to `CC(=O)N1C[C@@H]2CN(c3c(C4CC4)ccc4cncn34)C[C@@H]2C1(C)C` (racemic) [Example 56, Racemic-1-((3aS,6aR)-5-(6-cyclopropylimidazo[1,5-a]pyridin-5-yl)-1,1-dimethylhexahydropyrrolo[3,4-c]pyrrol-2(1H)-yl)ethanone], the IC50 in test [1] and in test [2] was more than 5000 nM each time.
Regarding `O=C(N[C@@H]1[C@H]2C=C(c3cc(Cl)cc4[nH]ncc34)C[C@H]21)C1CC1` (racemic) [Example 183, Racemic-N-((1S,5R,6S)-3-(6-chloro-1H-indazol-4-yl)bicyclo[3.1.0]hex-2-en-6-yl)cyclopropanecarboxamide], the results for the IC50 in test [1] and in test [2] were more than 5000 nM and 1000 to 5000 nM, respectively.
As to `CS(=O)(=O)N[C@H]1C[C@@H]2C[C@@](O)(c3cc(Cl)cc4[nH]ncc34)C[C@@H]2C1` [Example 3, N-((2r,3aR,5r,6aS)-5-(6-chloro-1H-indazol-4-yl)-5-hydroxyoctahydropentalen-2-yl)methanesulfonamide], the IC50 is more than 5000 nM in test [1] and not above 500 nM in test [2].
With `CC(=O)N1C[C@@H]2C[C@@](O)(c3cc(Cl)cn4cncc34)C[C@@H]2C1` [Example 6, 1-((3aR,5r,6aS)-5-(6-chloroimidazo[1,5-a]pyridin-8-yl)-5-hydroxyhexahydrocyclopenta[c]pyrrol-2(1H)-yl)ethanone], the results for the IC50 in test [1] and in test [2] were more than 5000 nM and 500 to 1000 nM, respectively.
Consider `CC(=O)N1C[C@@H]2C[C@@](O)(c3c(Cl)ccc4cncn34)C[C@@H]2C1` [Example 7, 1-((3aR,5r,6aS)-5-(6-chloroimidazo[1,5-a]pyridin-5-yl)-5-hydroxyhexahydrocyclopenta[c]pyrrol-2(1H)-yl)ethanone], for which the IC50 in test [1] and in test [2] was more than 5000 nM throughout.
On to `CC(=O)N1C[C@@H]2C[C@@](O)(c3cc(Cl)cc4cn[nH]c34)C[C@@H]2C1` [Example 8, 1-((3aR,5r,6aS)-5-(5-chloro-1H-indazol-7-yl)-5-hydroxyhexahydrocyclopenta[c]pyrrol-2(1H)-yl)ethanone], for which the IC50 in test [1] and in test [2] was more than 5000 nM throughout.
`CNS(=O)(=O)N[C@H]1[C@@H]2C[C@@](O)(c3cc(Cl)cc4[nH]ncc34)C[C@@H]21` [Example 9, N′-methyl-N-((1R,3r,5S,6r)-3-(6-chloro-1H-indazol-4-yl)-3-hydroxybicyclo[3.1.0]hexan-6-yl)sulfuric diamide]: the IC50 in test [1] and in test [2] was not above 500 nM each time.
Consider `CS(=O)(=O)N[C@H]1[C@@H]2C[C@@](O)(c3cc(C(F)(F)F)cc4[nH]ncc34)C[C@@H]21` [Example 10, N-((1R,3r,5S,6r)-3-hydroxy-3-(6-(trifluoromethyl)-1H-indazol-4-yl)bicyclo[3.1.0]hexan-6-yl)methanesulfonamide], for which the concentration for half-maximal inhibition (IC50) is 1000 to 5000 nM in test [1] and not above 500 nM in test [2].
For the molecule `OC1(c2cc(Cl)cc3[nH]ncc23)CC1` [Example 11, 1-(6-chloro-1H-indazol-4-yl)cyclopropanol], the figures for the IC50 in test [1] and in test [2] were more than 5000 nM and not above 500 nM, respectively.
In the case of `O[C@@H]1C[C@@H]2C[C@@](O)(c3cc(Cl)cc4[nH]ncc34)C[C@@H]2C1` [Example 32, (2r,3aR,5s,6aS)-2-(6-chloro-1H-indazol-4-yl)octahydropentalene-2,5-diol], the IC50 in test [1] was 1000 to 5000 nM; in test [2], not above 500 nM.
`O=S(=O)(c1ccccc1)N1C[C@@H]2C[C@@](O)(c3cc(Cl)cc4[nH]ncc34)C[C@@H]2C1` [Example 35, (3aR,5r,6aS)-5-(6-chloro-1H-indazol-4-yl)-2-(phenylsulfonyl)octahydrocyclopenta[c]pyrrol-5-ol]: the values for the IC50 in test [1] and in test [2] were more than 5000 nM and not above 500 nM, respectively.
As to `O=C(c1ccccc1)N1C[C@@H]2C[C@@](O)(c3cc(Cl)cc4[nH]ncc34)C[C@@H]2C1` [Example 36, ((3aR,5r,6aS)-5-(6-chloro-1H-indazol-4-yl)-5-hydroxyhexahydrocyclopenta[c]pyrrol-2(1H)-yl)(phenyl)methanone], the IC50 was more than 5000 nM in test [1] and not above 500 nM in test [2].
In the same order, the values of `O=C(C1CC1)N1C[C@@H]2C[C@@](O)(c3cc(Cl)cc4[nH]ncc34)C[C@@H]2C1` [Example 38, ((3aR,5r,6aS)-5-(6-chloro-1H-indazol-4-yl)-5-hydroxyhexahydrocyclopenta[c]pyrrol-2(1H)-yl)(cyclopropyl)methanone] are more than 5000 nM and not above 500 nM.
For `N#Cc1ccc(S(=O)(=O)N2C[C@@H]3C[C@@](O)(c4cc(Cl)cc5[nH]ncc45)C[C@@H]3C2)cc1` [Example 39, 4-(((3aR,5r,6aS)-5-(6-chloro-1H-indazol-4-yl)-5-hydroxyhexahydrocyclopenta[c]pyrrol-2(1H)-yl)sulfonyl)benzonitrile], the IC50 in test [1] was more than 5000 nM; in test [2], not above 500 nM.
Consider `O=C(c1ccncc1)N1C[C@@H]2C[C@@](O)(c3cc(Cl)cc4[nH]ncc34)C[C@@H]2C1` [Example 40, ((3aR,5r,6aS)-5-(6-chloro-1H-indazol-4-yl)-5-hydroxyhexahydrocyclopenta[c]pyrrol-2(1H)-yl)(pyridin-4-yl)methanone], for which the IC50 in test [1] was more than 5000 nM; in test [2], not above 500 nM.
Turning to `N#Cc1ccc(C(=O)N2C[C@@H]3C[C@@](O)(c4cc(Cl)cc5[nH]ncc45)C[C@@H]3C2)cc1` [Example 42, 4-((3aR,5r,6aS)-5-(6-chloro-1H-indazol-4-yl)-5-hydroxyoctahydrocyclopenta[c]pyrrole-2-carbonyl)benzonitrile], the IC50 is 1000 to 5000 nM in test [1] and not above 500 nM in test [2].
Take `CS(=O)(=O)N1C[C@@H]2C[C@@](O)(c3cc(Cl)cn4cncc34)C[C@@H]2C1` [Example 52, (3aR,5r,6aS)-5-(6-chloroimidazo[1,5-a]pyridin-8-yl)-2-(methylsulfonyl)octahydrocyclopenta[c]pyrrol-5-ol]: the results for the IC50 in test [1] and in test [2] were 1000 to 5000 nM and not above 500 nM, respectively.
In the same order, the values of `CS(=O)(=O)N1C[C@@H]2C[C@@](O)(c3c(Cl)ccc4cncn34)C[C@@H]2C1` [Example 53, (3aR,5r,6aS)-5-(6-chloroimidazo[1,5-a]pyridin-5-yl)-2-(methylsulfonyl)octahydrocyclopenta[c]pyrrol-5-ol] are more than 5000 nM and 1000 to 5000 nM.
Take `CS(=O)(=O)N[C@H]1[C@@H]2C[C@@](O)(c3cc(Cl)cc4[nH]ncc34)C[C@@H]21` [Example 63, N-((1R,3r,5S,6r)-3-(6-chloro-1H-indazol-4-yl)-3-hydroxybicyclo[3.1.0]hexan-6-yl)methanesulfonamide]: the values for the IC50 in test [1] and in test [2] were 500 to 1000 nM and not above 500 nM, respectively.
Turning to `CC(=O)N[C@H]1[C@@H]2C[C@@](O)(c3cc(Cl)cc4[nH]ncc34)C[C@@H]21` [Example 64, N-((1R,3r,5S,6r)-3-(6-chloro-1H-indazol-4-yl)-3-hydroxybicyclo[3.1.0]hexan-6-yl)acetamide], the IC50 in test [1] is more than 5000 nM; in test [2], not above 500 nM.
In the same order, the values of `O=C(N[C@H]1[C@@H]2C[C@@](O)(c3cc(Cl)cc4[nH]ncc34)C[C@@H]21)c1ccncc1` [Example 83, N-((1R,3r,5S,6r)-3-(6-chloro-1H-indazol-4-yl)-3-hydroxybicyclo[3.1.0]hexan-6-yl)isonicotinamide] are 500 to 1000 nM and not above 500 nM.
For `CNS(=O)(=O)N1C[C@@H]2C[C@@](O)(c3cc(Cl)cc4[nH]ncc34)C[C@@H]2C1` [Example 87, (3aR,5r,6aS)-5-(6-chloro-1H-indazol-4-yl)-5-hydroxy-N-methylhexahydrocyclopenta[c]pyrrole-2(1H)-sulfonamide], the IC50 in test [1] is 1000 to 5000 nM; in test [2], not above 500 nM.
Regarding `O=C(N[C@H]1[C@@H]2C[C@@](O)(c3cc(Cl)cc4[nH]ncc34)C[C@@H]21)c1ccccc1` [Example 93, N-((1R,3r,5S,6r)-3-(6-chloro-1H-indazol-4-yl)-3-hydroxybicyclo[3.1.0]hexan-6-yl)benzamide], the results for the IC50 in test [1] and in test [2] were 500 to 1000 nM and not above 500 nM, respectively.
With `O=S(=O)(N[C@H]1[C@@H]2C[C@@](O)(c3cc(Cl)cc4[nH]ncc34)C[C@@H]21)c1ccccc1` [Example 95, N-((1R,3r,5S,6r)-3-(6-chloro-1H-indazol-4-yl)-3-hydroxybicyclo[3.1.0]hexan-6-yl)benzenesulfonamide], the IC50 in test [1] was more than 5000 nM; in test [2] it was not above 500 nM.

Usually IC50 stands for the point on the concentration scale where inhibition reaches its midpoint. A lower IC50 goes with greater potency.
